Marks after values point to notes of the source that are not given here.
Assays:
[1] = tested on: obese patients with hypercholesterolemia and hypertriglyceridemia; conditions: human, in vivo
Protocol: (§1) Methods. Selected patients were obese with a Body Mass Index (IMC) >30 Kg/m^2; with border (Total cholesterol 200-240 mg./dL.) or severe (Total cholesterol ≥ 240 mg./dL.) hypercholesterolemia; with hypertriglyceridemia (≥ 150 mg./dL.); normal pressure patients (systolic pressure <140 mm Hg and diastolic pressure < 90 mm Hg).
(§2) Patients were >50 years old. Patients were randomized for receiving in Group 1: Orlistat 1 capsule (120 mg.) in main meal.
(§3) Compliance with treatment was assessed by counting capsules and with follow-up visits every 3 months. Total cholesterol, LDL cholesterol, HDL Cholesterol, Triglycerides in serum and blood pressure during baseline visit were assessed, and at 6 months and 12 months of treatment. Waist index was assessed.

[2] = tested on: obese patients with hypercholesterolemia and hypertriglyceridemia; assay: Clinical comparative study: blood pressure; assay type: in vivo
Protocol: as §1, §2, §3

[3] = dose-response study; cited from earlier work
[4] = tested on: obese patients with hypercholesterolemia and hypertriglyceridemia; assay: Clinical comparative study: body weight (body mass index, waist circumference reduction, weight loss); assay type: in vivo
Protocol: as §1, §2, §3

[5] = tested on: obese patients with hypercholesterolemia and hypertriglyceridemia; assay: Clinical comparative study of Orlistat, Atorvastatin and combination: lipid profile; assay type: in vivo; conditions: for C-HDL Baseline change at 1 year / C-LDL Baseline change at 1 year / CT Baseline change at 1 year / TG Baseline change at 1 year: 1 Year versus baseline; for C-HDL / C-LDL / CT (Total Cholesterol) / TG (Triglycerides): average (SD)
Protocol: as §1, §2, §3

[6] = cited from earlier work
[7] = dosage of 120 mg once a day; cited from earlier work
plasma proteins = conditions: in vitro; lipoproteins and albumin main attachment proteins; cited from earlier work

Row | Structure (SMILES) | Diastolic Baseline changes ([2]; 1 Year versus baseline) | Systolic Baseline changes ([2]; 1 Year versus baseline) | Diastolic blood pressure [PAD] ([2]; 1 year) | Systolic blood pressure [PAS] ([2]; 1 year) | Diastolic blood pressure [PAD] ([2]; 6 Months) | Systolic blood pressure [PAS] ([2]; 6 Months) | Diastolic Baseline changes ([2]; 6 Months versus baseline) [%] | Systolic Baseline changes ([2]; 6 Months versus baseline) [%] | IMC Baseline changes ([4]; 1 Year versus baseline) | PP Baseline changes ([4]; 1 Year versus baseline) | RCC Baseline changes ([4]; 1 Year versus baseline) | PP (Weight loss) ([4]; 1 year) | RCC (Waist circumference reduction) ([4]; 1 year) | PP (Weight loss) ([4]; 6 Months) | RCC (Waist circumference reduction) ([4]; 6 Months) | IMC Baseline changes ([4]; 6 Months versus baseline) | PP Baseline changes ([4]; 6 Months versus baseline) | RCC Baseline changes ([4]; 6 Months versus baseline) | C-HDL Baseline change at 1 year [5] | C-LDL Baseline change at 1 year [5] | other results
1 | CC(C)c1c(C(=O)Nc2ccccc2)c(-c2ccccc2)c(-c2ccc(F)cc2)n1CC[C@@H](O)C[C@@H](O)CC(=O)O [Atorvastatin] | -7.0* % | -6.0* % | 83 (3) mm. Hg | 127 (4) mm. Hg | 85 (4) mm. Hg | 130 (4) mm. Hg | -5.0 | -3.0 | -4.1* % | -4.6* % | -3.7* % | -7.3 (1.2) | -3.1 (1.1) cm. | -3.7 (1.1) | -1.5 (0.7) cm. | -2.3% | -3.7% | -1.5% | 12.3** % | -33.0** % | alterations as to serum transaminases or in creatinphosphokinase activity [1]: did not show alterations; reduce LDL cholesterol [3]: 41-61%; reduce apolipoprotein B [3]: 34-50%; reduce total cholesterol [3]: 30-46%; reduce triglycerides [3]: 14-33%; CT Baseline change at 1 year [5]: -27.0** %; TG Baseline change at 1 year [5]: -25.0* %; C-HDL ([5]; 1 year of treatment): 46 (5) mg./dL.; C-LDL ([5]; 1 year of treatment): 104 (23) mg./dL.; CT (Total Cholesterol) ([5]; 1 year of treatment): 184 (23) mg./dL.; TG (Triglycerides) ([5]; 1 year of treatment): 125 (28) mg./dL.; C-HDL ([5]; 6 months of treatment): 44 (5) mg./dL.; C-LDL ([5]; 6 months of treatment): 151 (22)* mg./dL.; CT (Total Cholesterol) ([5]; 6 months of treatment): 191 (21)* mg./dL.; TG (Triglycerides) ([5]; 6 months of treatment): 126 (29) mg./dL.
2 | CCCCCCCCCCC[C@@H](C[C@@H]1OC(=O)[C@H]1CCCCCC)OC(=O)[C@H](CC(C)C)NC=O [Orlistat] | -8.0* % | -16.0* % | 82 (3) mm. Hg | 128 (3) mm. Hg | 82 (3) mm. Hg | 130 (3) mm. Hg | -8.0 | -6.0 | -6.2** % | -4.6** % | -4.6* % | -6.6 (1.5) | -4.1 (1.1) cm. | -4.0 (1.2) | -2.1 (0.7) cm. | -3.2* % | -4.* % | -2.1* % | 4.8% | -17.0* % | intact Orlistat concentrations ([6]; at 8 hours after oral administration, not detectable): < 5 ng/mL; two main metabolites M1 and M3 as share of total plasma concentration ([6]; of the minimal systemically absorbed fraction of the dose): about 42%; maximum inhibition of fatty absorption [7]: 30%; adverse events [1]: Two patients from Group 1 showed adverse gastrointestinal events (fecal urgency); IMC (Body Mass Index) ([4]; 1 year): 27.3 (1.3) Kg./M^2; IMC (Body Mass Index) ([4]; 6 Months): 30.3 (1.4) Kg./M^2; CT Baseline change at 1 year [5]: -13.0* %; TG Baseline change at 1 year [5]: -30-3** %; C-HDL ([5]; 1 year of treatment): 45 (6) mg./dL.; C-LDL ([5]; 1 year of treatment): 152 (23) mg./dL.; CT (Total Cholesterol) ([5]; 1 year of treatment): 211 (25) mg./dL.; TG (Triglycerides) ([5]; 1 year of treatment): 100 (22) mg./dL.; C-HDL ([5]; 6 months of treatment): 44 (5) mg./dL.; C-LDL ([5]; 6 months of treatment): 163 (21) mg./dL.; CT (Total Cholesterol) ([5]; 6 months of treatment): 232 (22) mg./dL.; TG (Triglycerides) ([5]; 6 months of treatment): 120 (24) mg./dL.; attached to plasma proteins (plasma proteins): > 99%
